Experimental data reported in the supplement of paper PMC10307832.

Columns and labels:
Assay in all cases: relative viability (nuclei count vs DMSO), 5 days (fraction); higher = more cells survive
Erlotinib + Navitoclax = compound: C#Cc1cccc(Nc2ncnc3cc(OCCOC)c(OCCOC)cc23)c1 [Erlotinib] + CC1(C)CCC(c2ccc(Cl)cc2)=C(CN2CCN(c3ccc(C(=O)NS(=O)(=O)c4ccc(N[C@H](CCN5CCOCC5)CSc5ccccc5)c(S(=O)(=O)C(F)(F)F)c4)cc3)CC2)C1 [Navitoclax] (partner 0.5 µM)
In short: (§1)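 Dosing by pin tool came one day after lung cancer cell lines were seeded in 1536-well plates, using either one drug or a fixed anchor-drug dose plus five library-drug doses (not always all listed) in √10 steps. After 5 days, nuclei were counted on 4× images. Relative viability is treated-well nuclei count divided by vehicle-well nuclei count, and values are medians of duplicate plates.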

Erlotinib + Pemetrexed = compound: C#Cc1cccc(Nc2ncnc3cc(OCCOC)c(OCCOC)cc23)c1 [Erlotinib] + Nc1nc2[nH]cc(CCc3ccc(C(=O)N[C@@H](CCC(=O)O)C(=O)O)cc3)c2c(=O)[nH]1 [Pemetrexed] (partner 0.2 µM)
In short: as §1

Erlotinib + Dasatinib = compound: C#Cc1cccc(Nc2ncnc3cc(OCCOC)c(OCCOC)cc23)c1 [Erlotinib] + Cc1nc(Nc2ncc(C(=O)Nc3c(C)cccc3Cl)s2)cc(N2CCN(CCO)CC2)n1 [Dasatinib] (partner 0.075 µM)
In short: as §1

Cell Line: HCC-15
- relative viability (Erlotinib + Navitoclax; first compound 0.02 µM): 0.735
- relative viability (Erlotinib + Navitoclax; first compound 0.2 µM): 0.68
- relative viability (Erlotinib + Navitoclax; first compound 0.6325 µM): 0.736
- relative viability (Erlotinib + Navitoclax; first compound 2 µM): 0.617
- relative viability (Erlotinib + Pemetrexed; first compound 0.02 µM): 0.241
- relative viability (Erlotinib + Pemetrexed; first compound 0.2 µM): 0.225
- relative viability (Erlotinib + Pemetrexed; first compound 0.6325 µM): 0.249
- relative viability (Erlotinib + Pemetrexed; first compound 2 µM): 0.215
- relative viability (Erlotinib + Dasatinib; first compound 0.02 µM): 0.66
- relative viability (Erlotinib + Dasatinib; first compound 0.2 µM): 0.612
- relative viability (Erlotinib + Dasatinib; first compound 0.6325 µM): 0.605
- relative viability (Erlotinib + Dasatinib; first compound 2 µM): 0.533

Cell Line: HCC-44
- relative viability (Erlotinib + Navitoclax; first compound 0.02 µM): 0.992
- relative viability (Erlotinib + Navitoclax; first compound 0.2 µM): 0.866
- relative viability (Erlotinib + Navitoclax; first compound 0.6325 µM): 1.05
- relative viability (Erlotinib + Navitoclax; first compound 2 µM): 0.868
- relative viability (Erlotinib + Pemetrexed; first compound 0.02 µM): 0.682
- relative viability (Erlotinib + Pemetrexed; first compound 0.2 µM): 0.724
- relative viability (Erlotinib + Pemetrexed; first compound 0.6325 µM): 0.662
- relative viability (Erlotinib + Pemetrexed; first compound 2 µM): 0.639

Cell Line: HCC-78
- relative viability (Erlotinib + Navitoclax; first compound 0.02 µM): 0.731
- relative viability (Erlotinib + Navitoclax; first compound 0.2 µM): 0.503
- relative viability (Erlotinib + Navitoclax; first compound 0.6325 µM): 0.744
- relative viability (Erlotinib + Navitoclax; first compound 2 µM): 0.621
- relative viability (Erlotinib + Pemetrexed; first compound 0.02 µM): 0.883
- relative viability (Erlotinib + Pemetrexed; first compound 0.2 µM): 0.912
- relative viability (Erlotinib + Pemetrexed; first compound 0.6325 µM): 0.892
- relative viability (Erlotinib + Pemetrexed; first compound 2 µM): 0.899
- relative viability (Erlotinib + Dasatinib; first compound 0.02 µM): 0.319
- relative viability (Erlotinib + Dasatinib; first compound 0.2 µM): 0.36
- relative viability (Erlotinib + Dasatinib; first compound 0.6325 µM): 0.364
- relative viability (Erlotinib + Dasatinib; first compound 2 µM): 0.225

Cell Line: HCC-366
- relative viability (Erlotinib + Navitoclax; first compound 0.02 µM): 1.03
- relative viability (Erlotinib + Navitoclax; first compound 0.2 µM): 1.02
- relative viability (Erlotinib + Navitoclax; first compound 0.6325 µM): 1.02
- relative viability (Erlotinib + Navitoclax; first compound 2 µM): 1.01
- relative viability (Erlotinib + Pemetrexed; first compound 0.02 µM): 0.176
- relative viability (Erlotinib + Pemetrexed; first compound 0.2 µM): 0.197
- relative viability (Erlotinib + Pemetrexed; first compound 0.6325 µM): 0.127
- relative viability (Erlotinib + Pemetrexed; first compound 2 µM): 0.136
- relative viability (Erlotinib + Dasatinib; first compound 0.02 µM): 0.61
- relative viability (Erlotinib + Dasatinib; first compound 0.2 µM): 0.606
- relative viability (Erlotinib + Dasatinib; first compound 0.6325 µM): 0.637
- relative viability (Erlotinib + Dasatinib; first compound 2 µM): 0.522

Cell Line: HCC-827
- relative viability (Erlotinib + Navitoclax; first compound 0.02 µM): 0.465
- relative viability (Erlotinib + Navitoclax; first compound 0.2 µM): 0.167
- relative viability (Erlotinib + Navitoclax; first compound 0.6325 µM): 0.162
- relative viability (Erlotinib + Navitoclax; first compound 2 µM): 0.172
- relative viability (Erlotinib + Pemetrexed; first compound 0.02 µM): 0.182
- relative viability (Erlotinib + Pemetrexed; first compound 0.2 µM): 0.147
- relative viability (Erlotinib + Pemetrexed; first compound 0.6325 µM): 0.139
- relative viability (Erlotinib + Pemetrexed; first compound 2 µM): 0.156
- relative viability (Erlotinib + Dasatinib; first compound 0.02 µM): 0.148
- relative viability (Erlotinib + Dasatinib; first compound 0.2 µM): 0.152
- relative viability (Erlotinib + Dasatinib; first compound 0.6325 µM): 0.195
- relative viability (Erlotinib + Dasatinib; first compound 2 µM): 0.126

Cell Line: HOP-62
- relative viability (Erlotinib + Navitoclax; first compound 0.02 µM): 1.08
- relative viability (Erlotinib + Navitoclax; first compound 0.6325 µM): 1.19
- relative viability (Erlotinib + Navitoclax; first compound 2 µM): 1.05
- relative viability (Erlotinib + Pemetrexed; first compound 0.02 µM): 0.285
- relative viability (Erlotinib + Pemetrexed; first compound 0.2 µM): 0.332
- relative viability (Erlotinib + Pemetrexed; first compound 0.6325 µM): 0.255
- relative viability (Erlotinib + Pemetrexed; first compound 2 µM): 0.312
- relative viability (Erlotinib + Dasatinib; first compound 0.02 µM): 0.695
- relative viability (Erlotinib + Dasatinib; first compound 0.2 µM): 0.583
- relative viability (Erlotinib + Dasatinib; first compound 2 µM): 0.567

Cell Line: IA-LM
- relative viability (Erlotinib + Navitoclax; first compound 0.02 µM): 0.847
- relative viability (Erlotinib + Navitoclax; first compound 0.6325 µM): 1.01
- relative viability (Erlotinib + Navitoclax; first compound 2 µM): 0.802

Cell Line: LC-2-ad
- relative viability (Erlotinib + Navitoclax; first compound 0.02 µM): 0.488
- relative viability (Erlotinib + Navitoclax; first compound 0.2 µM): 0.472
- relative viability (Erlotinib + Navitoclax; first compound 0.6325 µM): 0.397
- relative viability (Erlotinib + Navitoclax; first compound 2 µM): 0.229
- relative viability (Erlotinib + Pemetrexed; first compound 0.02 µM): 0.307
- relative viability (Erlotinib + Pemetrexed; first compound 0.2 µM): 0.279
- relative viability (Erlotinib + Pemetrexed; first compound 0.6325 µM): 0.274
- relative viability (Erlotinib + Pemetrexed; first compound 2 µM): 0.262
- relative viability (Erlotinib + Dasatinib; first compound 0.02 µM): 0.724
- relative viability (Erlotinib + Dasatinib; first compound 0.2 µM): 0.466
- relative viability (Erlotinib + Dasatinib; first compound 0.6325 µM): 0.589
- relative viability (Erlotinib + Dasatinib; first compound 2 µM): 0.452

Cell Line: LCLC-97TM1
- relative viability (Erlotinib + Navitoclax; first compound 0.02 µM): 0.39
- relative viability (Erlotinib + Navitoclax; first compound 0.6325 µM): 0.464
- relative viability (Erlotinib + Navitoclax; first compound 2 µM): 0.391
- relative viability (Erlotinib + Pemetrexed; first compound 0.02 µM): 0.22
- relative viability (Erlotinib + Pemetrexed; first compound 0.2 µM): 0.201
- relative viability (Erlotinib + Pemetrexed; first compound 0.6325 µM): 0.176
- relative viability (Erlotinib + Pemetrexed; first compound 2 µM): 0.155
- relative viability (Erlotinib + Dasatinib; first compound 0.02 µM): 0.749
- relative viability (Erlotinib + Dasatinib; first compound 0.2 µM): 0.794
- relative viability (Erlotinib + Dasatinib; first compound 0.6325 µM): 0.967
- relative viability (Erlotinib + Dasatinib; first compound 2 µM): 0.782

Cell Line: LCLC-103H
- relative viability (Erlotinib + Pemetrexed; first compound 0.02 µM): 0.502
- relative viability (Erlotinib + Pemetrexed; first compound 0.2 µM): 0.449
- relative viability (Erlotinib + Pemetrexed; first compound 0.6325 µM): 0.476
- relative viability (Erlotinib + Pemetrexed; first compound 2 µM): 0.45
- relative viability (Erlotinib + Dasatinib; first compound 0.2 µM): 0.6
- relative viability (Erlotinib + Dasatinib; first compound 0.6325 µM): 0.478
- relative viability (Erlotinib + Dasatinib; first compound 2 µM): 0.399

Cell Line: LK-2
- relative viability (Erlotinib + Navitoclax; first compound 0.02 µM): 0.941
- relative viability (Erlotinib + Navitoclax; first compound 0.2 µM): 0.621
- relative viability (Erlotinib + Navitoclax; first compound 0.6325 µM): 1.04
- relative viability (Erlotinib + Navitoclax; first compound 2 µM): 0.725
- relative viability (Erlotinib + Pemetrexed; first compound 0.02 µM): 0.259
- relative viability (Erlotinib + Pemetrexed; first compound 0.2 µM): 0.278
- relative viability (Erlotinib + Pemetrexed; first compound 0.6325 µM): 0.318
- relative viability (Erlotinib + Pemetrexed; first compound 2 µM): 0.235
- relative viability (Erlotinib + Dasatinib; first compound 0.02 µM): 0.318
- relative viability (Erlotinib + Dasatinib; first compound 0.2 µM): 0.225
- relative viability (Erlotinib + Dasatinib; first compound 0.6325 µM): 0.306
- relative viability (Erlotinib + Dasatinib; first compound 2 µM): 0.268

Cell Line: LOU-NH91
- relative viability (Erlotinib + Navitoclax; first compound 0.02 µM): 0.52
- relative viability (Erlotinib + Navitoclax; first compound 0.2 µM): 0.38
- relative viability (Erlotinib + Navitoclax; first compound 0.6325 µM): 0.392
- relative viability (Erlotinib + Navitoclax; first compound 2 µM): 0.4
- relative viability (Erlotinib + Pemetrexed; first compound 0.02 µM): 0.448
- relative viability (Erlotinib + Pemetrexed; first compound 0.2 µM): 0.393
- relative viability (Erlotinib + Pemetrexed; first compound 0.6325 µM): 0.414
- relative viability (Erlotinib + Pemetrexed; first compound 2 µM): 0.371
- relative viability (Erlotinib + Dasatinib; first compound 0.02 µM): 0.459
- relative viability (Erlotinib + Dasatinib; first compound 0.2 µM): 0.434
- relative viability (Erlotinib + Dasatinib; first compound 0.6325 µM): 0.415
- relative viability (Erlotinib + Dasatinib; first compound 2 µM): 0.365

Cell Line: LU99A
- relative viability (Erlotinib + Navitoclax; first compound 0.02 µM): 0.937
- relative viability (Erlotinib + Navitoclax; first compound 0.2 µM): 0.784
- relative viability (Erlotinib + Navitoclax; first compound 0.6325 µM): 0.725
- relative viability (Erlotinib + Navitoclax; first compound 2 µM): 0.746
- relative viability (Erlotinib + Pemetrexed; first compound 0.02 µM): 0.166
- relative viability (Erlotinib + Pemetrexed; first compound 0.2 µM): 0.196
- relative viability (Erlotinib + Pemetrexed; first compound 0.6325 µM): 0.16
- relative viability (Erlotinib + Pemetrexed; first compound 2 µM): 0.151
- relative viability (Erlotinib + Dasatinib; first compound 0.02 µM): 0.556
- relative viability (Erlotinib + Dasatinib; first compound 0.2 µM): 0.474
- relative viability (Erlotinib + Dasatinib; first compound 0.6325 µM): 0.584
- relative viability (Erlotinib + Dasatinib; first compound 2 µM): 0.475

Cell Line: LXF-289
- relative viability (Erlotinib + Navitoclax; first compound 0.02 µM): 0.904
- relative viability (Erlotinib + Navitoclax; first compound 0.2 µM): 0.991
- relative viability (Erlotinib + Navitoclax; first compound 0.6325 µM): 0.933
- relative viability (Erlotinib + Navitoclax; first compound 2 µM): 0.869
- relative viability (Erlotinib + Pemetrexed; first compound 0.02 µM): 0.908
- relative viability (Erlotinib + Pemetrexed; first compound 0.6325 µM): 0.819
- relative viability (Erlotinib + Pemetrexed; first compound 2 µM): 0.783
- relative viability (Erlotinib + Dasatinib; first compound 0.02 µM): 0.295
- relative viability (Erlotinib + Dasatinib; first compound 0.2 µM): 0.274
- relative viability (Erlotinib + Dasatinib; first compound 0.6325 µM): 0.239
- relative viability (Erlotinib + Dasatinib; first compound 2 µM): 0.183

Cell Line: NCI-H23
- relative viability (Erlotinib + Navitoclax; first compound 0.02 µM): 0.894
- relative viability (Erlotinib + Navitoclax; first compound 0.2 µM): 0.88
- relative viability (Erlotinib + Navitoclax; first compound 0.6325 µM): 1.16
- relative viability (Erlotinib + Navitoclax; first compound 2 µM): 0.596
- relative viability (Erlotinib + Pemetrexed; first compound 0.02 µM): 0.774
- relative viability (Erlotinib + Pemetrexed; first compound 0.2 µM): 0.575
- relative viability (Erlotinib + Pemetrexed; first compound 0.6325 µM): 0.747
- relative viability (Erlotinib + Pemetrexed; first compound 2 µM): 0.523
- relative viability (Erlotinib + Dasatinib; first compound 0.02 µM): 0.876
- relative viability (Erlotinib + Dasatinib; first compound 0.6325 µM): 0.928
- relative viability (Erlotinib + Dasatinib; first compound 2 µM): 0.698
